According to patent US6303596A, “Use of taurolidine for treatment of leukemias” (priority 2000, dated 2001):
Several values for one entry are separate records, joined by “and”; a condition that tells them apart may be missing. Equal values may be shown once.

Tests used:
Lymphocytes = assay: tissue or blood; format: cell-based, human; settings: whole blood
Method: (§1) FIGS. 15A, 15B, and 15C depict TUNEL analysis of PBMC treated with taurolidine in whole blood, for control cells, taurolidine-treated cells, and anisomycin-treated cells, respectively . Cells were incubated with 500 μg/ml taurolidine for 4 hours, resuspended in fresh medium, incubated for two hours further and processed for TUNEL analysis. Parallel samples were stained with FITC-conjugated anti-CD14 and PI as described herein. Ten thousand events were recorded per sample. TUNEL signal (x -axis) is a measure of DNA fragmentation, while FSC (y-axis) is related to cell size. TUNEL-negative lymphocytes are bounded by rectangle R 1, while TUNEL-negative monocytes (CD 14 positive cells) are bounded by rectangle R2. R3 bounds the TUNEL-positive population of cells. There were minimal numbers of PI-positive cells in 6 hour samples (see Table VI).
(§2) In the second method, DNA fragmentation was detected via TUNEL assay according to the manufacturer's instructions. With this methodology, 2×10^6 cells were fixed with 2% paraformaldehyde, permeabilized with 0.1% Triton X-100/0.1% citrate, incubated at 37° C. with terminal deoxynucleotidyl transferase and FITC-dUTP, rinsed and analyzed by flow cytometry. Enhanced FITC signal indicates apoptosis-specific DNA fragmentation. Gavriali, et al, "Identification of programmed cell death in situ via specific labeling of nuclear DNA fragmentation," J Cell Biol 119:493 (1992). Parallel aliquots of unfixed cells were treated with PI and FITC-conjugated anti-CD14 and analyzed by flow cytometry, in order to identify cells with permeable cell membranes (since PI binds to DNA but is excluded from cells with intact plasma membranes) and also to determine the cell-specificity of the apoptotic signal.
(§3) Taurolidine at 100 μg/ml induced apoptosis of approximately 75% of purified peripheral blood monocytes when these cells were incubated in culture medium. However, in order to more closely mimic the milieu of leukocytes in vivo, induction of apoptosis in PBMC by taurolidine was studied in whole blood (anticoagulated with heparin). As before, apoptosis was quantitated by measuring the loss of monocytes from a TUTNEL-negative (no DNA fragmentation), CD 14 positive population of cells which was concomitant with the appearance of a TUNEL-positive population of cells. Treatment of PBMC in whole blood resulted
(§4) in a shift of the taurolidine dose-response curve. […] As a positive control for induction of apoptosis, some cells were treated with anisomycin, a protein synthesis inhibitor known to induce apoptosis in monocytes.
(§5) ^a Analysis by flow cytometry after staining cells with PI and
(§6) processing for TUNEL. Data are mean ± SD of 2 experiments.
(§7) ^b Percent of cells present in the TUNEL-negative region in control

Monocytes = assay: tissue or blood; format: cell-based, human
Method: as §1, §2, §3, §4, §5, §6, §7

MM6 = assay: TUNEL / propidium iodide flow cytometry, MM6; format: cell-based, human; settings: MM6; taurolidine 100 μg/ml or anisomycin 1 μg/ml for 4 h, assayed at 6 hours; mean ± SD
Method: as §2
(§8) Consequently, TUNEL analysis was performed on PBMC at 3, 6, or 24 hours after treatment with 25 to 100 μg/ml taurolidine. Aliquots of harvested cells were also labeled with FITC-conjugated anti-CD14 antibodies and PI, which allowed identification of monocytes (CD14-positive cells) and cells with damaged cell membranes (PI-positive cells). […] Thus, nearly 75% of the monocytes were TUNEL-positive following treatment with 100 μg/ml taurolidine for six hours. Confirmation that the TUNEL-positive cells were monocytes was obtained by staining with FITC-conjugated anti-CD14.
(§9) In another study, TUNEL assays were performed on all cell lines 6 hours after cells were initially exposed to taurolidine (cells were treated for 4 hours, rinsed, and then incubated for 2 more hours before TUNEL assay was performed).
(§10) . Taurolidine and anisomycin induced apoptosis in MM6, HL-60, and Jurkat cells (Table VIII). MM6 and HL-60 cells were similarly effected, with >80% TUNEL-positive cells after 6 hours. Jurkat cells were less sensitive, with approximately 50% of cells induced to undergo apoptosis after taurolidine treatment. After 6 hours, 73% of anisomycin-treated REH cells were apoptotic, with less than 20% of taurolidine-treated REH cells being TUNEL-positive. However, assay of cells 24 hours after
(§11) ^a Analysis by flow cytometry after staining cells with propidium
(§12) iodide and processing for TUNEL.
(§13) Data are percent of total cell-size events, and are expressed as mean ±
(§14) Cells were treated for 4 hours with taurolidine (100 μg/ml) or
(§15) anisomycin (1 μg/ml), and then assayed at 6 hours.

K562 = assay: TUNEL / propidium iodide flow cytometry, K562; format: cell-based, human; settings: taurolidine 100 μg/ml or anisomycin 1 μg/ml for 4 h, mean ± SD
Method: as §2, §9, §10, §11, §12, §13, §14, §15
(§16) Data are percent of total cell-sized events, and are expressed as mean ±
(§17) anisomycin (1 μg/ml), and then assayed at 24 hours.

HL-60 = assay: TUNEL / propidium iodide flow cytometry, HL-60; format: cell-based, human; settings: HL-60; taurolidine 100 μg/ml or anisomycin 1 μg/ml for 4 h, assayed at 6 hours; mean ± SD
Method: as §2, §8, §9, §10, §11, §12, §13, §14, §15

REH = assay: TUNEL / propidium iodide flow cytometry, REH; format: cell-based, human; settings: taurolidine 100 μg/ml or anisomycin 1 μg/ml for 4 h, mean ± SD
Method: as §2, §9, §10, §11, §12, §13, §14, §15, §16, §17

Jurkat = assay: TUNEL / propidium iodide flow cytometry, Jurkat; format: cell-based, human; settings: taurolidine 100 μg/ml or anisomycin 1 μg/ml for 4 h, assayed at 6 hours, mean ± SD
Method: as §2, §9
(§18) . Taurolidine and anisomycin induced apoptosis in MM6, HL-60, and Jurkat cells (Table VIII). MM6 and HL-60 cells were similarly effected, with >80% TUNEL-positive cells after 6 hours. […]
(§19) Data are percent of total cell-size events, and are expressed as mean ± […]

ECV304 = assay: TUNEL / propidium iodide flow cytometry, ECV304; format: cell-based, human; settings: ECV304; taurolidine 100 μg/ml or anisomycin 1 μg/ml for 4 h, assayed at 6 hours; mean ± SD
Method: as §2, §9, §18, §19

GM5387 = assay: TUNEL / propidium iodide flow cytometry, GM5387; format: cell-based, human; settings: GM5387; taurolidine 100 μg/ml or anisomycin 1 μg/ml for 4 h, assayed at 6 hours; mean ± SD
Method: as §2, §9, §18, §19

tissue factor (TF) = assay: LPS-induced tissue factor (TF) expression in MM6 cells, ELISA; format: cell-based, human; settings: MM6, taurine up to 0.5 mg/ml
Method: FIG. 2A represents MM6 cells; FIG. 2B represents PBMC. The cells were induced with LPS (hatched bars: 100 ng/ml LPS in RPMI supplemented with 10% BCS (RPMI+10% BCS); solid bars: 10 ng/ml in AIM-V+0.01% BCS) in the presence of varying concentrations of taurolidine,or with a dilution of the vehicle equivalent to that given to cells receiving 100 μg/ml taurolidine. After four hours, cells were collected and lysates were prepared for TF ELISA. Data are expressed as percent of TF antigen measured in cells treated with LPS alone (no taurolidine or vehicle). Experiments were performed with duplicate samples and were repeated at least three times. Values shown are mean±SEM of all experiments.
All cells were cultured in a 5% CO2 atmosphere at 37° C. MM6 cells were grown in RPMI supplemented with 10% BCS, 2 mM L-glutamine, and 50 μg/ml gentamicin (RPMI+10% BCS). In some experiments, MM6 cells were rinsed once with HBSS without Ca^++ or Mg^++ and once with AIM-V before finally being resuspended in AIM-V supplemented with 0.01% BCS (AIM-V+0.01% BCS). […] AIM-V was supplemented with a low amount of BCS (0.01%) in order to provide a source of LPS-binding protein, which enhances the response of monocytic cells to LPS. […] HL-60, REH, and Jurkat were cultured in RPMI supplemented with 10% heat inactivated fetal bovine serum (FBS), 2 mM L-glutamine, and 50 μg/ml gentamicin. ECV304 were cultured in M199 supplemented with 10% FBS, mM L-glutamine, and 50 μg/ml gentamicin. GM5387 was cultured in MEM supplemented with 20% FBS, 2 mM L-glutamine, and 50 μg/ml gentamicin.
For induction of TF or TNFα expression, MM6 cells or PBMC were cultured either in RPMI supplemented with 10% BCS or in AIM-V+0.01% BCS, and stimulated by adding LPS to final concentrations of 10 to 100 ng/ml. […] Except as noted, taurolidine and LPS were added to the cell cultures simultaneously. For TF determination, cells and culture media together were treated by adding Triton X-100 (1% final) and EDTA (7 mmol/L final), and the resulting lysates assayed by ELISA. […] For TNFα determination, cells were removed by centrifugation for 5 min at 250×g, and the supernatants were assayed by ELISA.

TNFα = assay: LPS-induced TNFα expression/secretion by MM6 cells, ELISA; format: cell-based, human; settings: MM6, taurine 44 μg/ml
Method: FIG. 3A and FIG. 3B are graphs depicting taurolidine inhibition of LPS-induced alpha […] (TNFα) expression by monocytic cells as determined by assay procedures. FIG. 3A represents MM6 cells; FIG. 3B represents PBMC. The cells were induced with LPS (hatched bars: 100 ng/ml LPS in RPMI+10% BCS; solid bars: 10 ng/ml in AIM-V+0.01% BCS) in the presence of varying concentrations of taurolidine. After four hours, cell supernatants were collected for TNFα ELISA. Data are expressed as percent of TNFα levels measured in cell cultures treated with LPS alone (no taurolidine or vehicle). Experiments were performed with duplicate samples and were repeated at least three times. Values shown in FIG. 3A are from a representative experiment. Values shown in FIG. 3B are mean±SEM of three experiments.
All cells were cultured in a 5% CO2 atmosphere at 37° C. MM6 cells were grown in RPMI supplemented with 10% BCS, 2 mM L-glutamine, and 50 μg/ml gentamicin (RPMI+10% BCS). In some experiments, MM6 cells were rinsed once with HBSS without Ca^++ or Mg^++ and once with AIM-V before finally being resuspended in AIM-V supplemented with 0.01% BCS (AIM-V+0.01% BCS). […] AIM-V was supplemented with a low amount of BCS (0.01%) in order to provide a source of LPS-binding protein, which enhances the response of monocytic cells to LPS. Ulevitch, R. J. and Tobias, P. S., "Recognition of endotoxin by cells leading to transmembrne signaling," Curr Opin Immunol 6:125 (1994). HL-60, REH, and Jurkat were cultured in RPMI supplemented with 10% heat inactivated fetal bovine serum (FBS), 2 mM L-glutamine, and 50 μg/ml gentamicin. ECV304 were cultured in M199 supplemented with 10% FBS, mM L-glutamine, and 50 μg/ml gentamicin. GM5387 was cultured in MEM supplemented with 20% FBS, 2 mM L-glutamine, and 50 μg/ml gentamicin.
For induction of TF or TNFα expression, MM6 cells or PBMC were cultured either in RPMI supplemented with 10% BCS or in AIM-V+0.01% BCS, and stimulated by adding LPS to final concentrations of 10 to 100 ng/ml. […]

human blood monocytes = settings: cited from earlier work

COc1ccc(C[C@H]2NC[C@H](O)[C@H]2OC(C)=O)cc1 [anisomycin]
induction of apoptosis in lymphocytes (Lymphocytes): no evidence for a significant effect | TUNEL-negative monocytes after anisomycin (Monocytes; PBMC in whole blood): loss of TUNEL-negative monocytes | TUNEL-positive cells after anisomycin (Monocytes; whole blood, 6 hour incubation, versus taurolidine): fewer TUNEL-positive cells | % TUNEL-positive (MM6): > 80% and 92.0 ± 2.3% | % propidium iodide positive (MM6): 19.1 ± 5.4% | % propidium iodide positive (K562; assayed at 6 hours): 4.8 ± 3.1% | % TUNEL-positive (K562; assayed at 24 hours): 2.2 ± 6.2% | % propidium iodide (K562; assayed at 24 hours): 7.1 ± 2.3% | % TUNEL-positive (K562; assayed at 24 hours, listed as Anisomycin): less than 10% | % TUNEL-positive (HL-60): > 80% and 96.1 ± 6.8% | % propidium iodide positive (HL-60): 28.3 ± 15.3% | % TUNEL-positive (REH; assayed at 6 hours): 73% and 72.9 ± 7.4% | % propidium iodide positive (REH; assayed at 6 hours): 18.4 ± 0.5% | % TUNEL-positive (REH; assayed at 24 hours): 53.0 ± 2.6% | % propidium iodide (REH; assayed at 24 hours): 51.6 ± 17.0% | % TUNEL-positive (Jurkat): 69.6 ± 19.8% | % propidium iodide positive (Jurkat): 5.1 ± 3.4% | % propidium iodide positive (ECV304): 2.2 ± 3.1% | % propidium iodide positive (GM5387): 5.4 ± 3.2%

NCCS(=O)(=O)O [taurine]
effect on TF expression (tissue factor (TF)): no effect on TF expression | effect on TNFα expression (TNFα): no effect on TNFα expression

B1: IL-4: anti-inflammatory cytokine IL-4 (protein, UniProt P05112 25-153, looked up)
Interleukin-4: HKCDITLQEIIKTLNSLTEQKTLCTELTVTDIFAASKNTTEKETFCRAATVLRQFYSHHEKDTRCLGATAQQFHRHKQLIRFLKRLDRNLWGLAGLNSCPVKEANQSTLENFLERLKTIMREKYSKCSS
effect on apoptosis in LPS-stimulated monocytes (human blood monocytes): can enhance apoptosis
